Data reported in patent US9556180B2, “Pyrazolo[3,4-d]pyrimidinone compounds as inhibitors of the P53/MDM2 interaction” (Novartis AG, priority 2013, dated 2017).

Columns and labels:
Assay type in all cases: binding
[1] = molecular target: T1, p53-MDM2 interaction (human MDM2 protein, amino acids 2-188) (Homo sapiens, UniProt Q00987); test: p53-MDM2 Assay 1: TR-FRET inhibition of p53-MDM2 interaction; conditions: 1.25 nM MDM2-biotinylated, 10 nM Cy5-p53 peptide
T1 construct: human MDM2 protein (amino acids 2-188); made in house
T1 sequence (Q00987 2-188): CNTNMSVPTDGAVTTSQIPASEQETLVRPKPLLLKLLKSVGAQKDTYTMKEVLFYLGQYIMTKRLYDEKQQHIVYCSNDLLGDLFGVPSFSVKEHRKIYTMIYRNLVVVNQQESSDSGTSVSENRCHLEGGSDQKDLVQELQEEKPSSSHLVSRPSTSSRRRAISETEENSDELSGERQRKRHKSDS
Experimental: (§1) Time Resolved Fluorescence Energy Transfer (TR-FRET) Assay
(§2) The inhibition of p53-MDM2 and p53-MDM4 interactions is measured by time resolved fluorescence energy transfer (TR-FRET). Fluorescence energy transfer (or Foerster resonance energy transfer) describes an energy transfer between donor and acceptor fluorescent molecules. For this assay, human MDM2 protein (amino acids 2-188) and human MDM4 protein (amino acids 2-185), tagged with a C-terminal biotin moiety, are used in combination with a Europium labeled streptavidin (Perkin Elmer, Inc., Waltham, Mass., USA) serving as the donor fluorophore. The p53 derived, Cy5 labeled peptide Cy5-TFSDLWKLL (p53 aa18-26) is the energy acceptor. Upon excitation of the donor molecule at 340 nm, binding interaction between MDM2 or MDM4 and the p53 peptide induces energy transfer and enhanced response at the acceptor emission wavelength at 665 nm. Disruption of the formation of the p53-MDM2 or p53-MDM4 complex due to an inhibitor molecule binding to the p53 binding site of MDM2 or MDM4 results in increased donor emission at 620 nm. The ratiometric FRET assay readout is calculated from the raw data of the two distinct fluorescence signals measured in time resolved mode (fluorescence 665 nm/fluorescence 620 nm×1000).
(§3) After addition of 1.25 nM MDM2-biotinylated or 2.5 nM MDM4-biotinylated (internal preparations, both MDM2 and MDM4 are biotinylated at the C-terminal of the peptide construct), and 0.625 nM Europium labeled streptavidin (Perkin Elmer), the solution is pre-incubated for 15 minutes at room temperature, then 10 nM Cy5-p53 peptide (internal preparation, the Cy5 dye is directly bound to the N-terminal part of p53 peptide construct) is added before an incubation at room temperature for 15 minutes prior to reading the plate. For measurement of samples, a Victor II microplate reader (Perkin Elmer) is used with the following settings: Excitation 340 nm, Emission Donor 620 nm and Emission Acceptor 665 nm. IC50 values are calculated by curve fitting using XLfit. If not specified, reagents are purchased from Sigma-Aldrich Chemie GmBH, Buchs, Switzerland.
(§4) This assay was used to evaluate compounds displaying inhibition of p53-MDM2 interaction and p53-MDM4 interaction at IC50s of 0.005 to 50 μM (p53-MDM2 Assay 1 and p53-MDM4 Assay 1, respectively). For selected compounds displaying IC50s between […] on MDM2, a slightly modified assay is used with the following adaptations: 0.1 nM MDM2, 0.1 nM Europium labeled streptavidin and Tecan genios Pro is used as a microplate reader for the fluorescence measurements (p53-MDM2 Assay 2).

[2] = molecular target: T2, p53-MDM4 interaction (human MDM4 protein, amino acids 2-185) (Homo sapiens, UniProt O15151); test: p53-MDM4 Assay 1: TR-FRET inhibition of p53-MDM4 interaction; conditions: 2.5 nM MDM4-biotinylated, 10 nM Cy5-p53 peptide
T2 construct: human MDM4 protein (amino acids 2-185); made in house
T2 sequence (O15151 2-185): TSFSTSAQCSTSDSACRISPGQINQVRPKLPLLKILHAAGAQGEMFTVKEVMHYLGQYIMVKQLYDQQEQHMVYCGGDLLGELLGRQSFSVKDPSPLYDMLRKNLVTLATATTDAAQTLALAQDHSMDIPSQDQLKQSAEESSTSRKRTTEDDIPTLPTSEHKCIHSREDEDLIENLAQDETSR
Experimental: as §1, §2, §3, §4

[3] = molecular target: T1, p53-MDM2 interaction (human MDM2 protein, amino acids 2-188); test: p53-MDM2 Assay 2: slightly modified TR-FRET assay; conditions: 0.1 nM MDM2, 0.1 nM Europium labeled streptavidin, Tecan genios Pro reader
Experimental: as §1, §2, §3, §4

## Cc1cc(Cl)ccc1C1c2c(nn(CCN(C)C)c2C(C)C)NC(=O)N1c1cccc(Cl)c1F (stereo not drawn) [Example 9, 5-(3-chloro-2-fluoro-phenyl)-4-(4-chloro-2-methyl-phenyl)-2-(2-dimethylamino-ethyl)-3-isopropyl-2,4,5,7-tetrahydro-pyrazolo[3,4-d]pyrimidin-6-one]
[1]
  IC50: 16.7 nM
[2]
  IC50: 41700 nM

## Cc1cc(Cl)ccc1[C@H]1c2c(nn(Cc3ccccc3)c2C(C)C)NC(=O)N1c1cccc(Cl)c1F [Example 2, (S)-2-Benzyl-5-(3-chloro-2-fluorophenyl)-4-(4-chloro-2-methylphenyl)-3-isopropyl-4,5-dihydro-2H-pyrazolo[3,4-d]pyrimidin-6(7H)-one]
[1]
  IC50: 1.8 nM
[2]
  IC50: 18500 nM

## COc1ccc(C(N)=O)cc1-n1nc2c(c1C(C)C)C(c1ccc(Cl)cc1C)N(c1cc(Cl)ccc1C)C(=O)N2 (stereo not drawn) [Example 28, 3-(4-(4-Chloro-2-methylphenyl)-5-(5-chloro-2-methylphenyl)-3-isopropyl-6-oxo-4,5,6,7-tetrahydro-2H-pyrazolo[3,4-d]pyrimidin-2-yl)-4-methoxybenzamide]
[3]
  IC50: 0.24 nM

## COc1ccc(CNC(C)=O)cc1-n1nc2c(c1C(C)C)C(c1ccc(Cl)cc1C)N(c1cc(Cl)ccc1C)C(=O)N2 (stereo not drawn) [Example 26, N-(3-(4-(4-Chloro-2-methylphenyl)-5-(5-chloro-2-methylphenyl)-3-isopropyl-6-oxo-4,5,6,7-tetrahydro-2H-pyrazolo[3,4-d]pyrimidin-2-yl)-4-methoxybenzyl)acetamide]
[3]
  IC50: 0.13 nM

## COc1ccccc1-n1nc2c(c1C(C)C)[C@@H](c1ccc(Cl)cc1C)N(c1cccc(Cl)c1F)C(=O)N2 [Example 7, (R)-5-(3-Chloro-2-fluoro-phenyl)-4-(4-chloro-2-methyl-phenyl)-3-isopropyl-2-(2-methoxy-phenyl)-2,4,5,7-tetrahydro-pyrazolo[3,4-d]pyrimidin-6-one]
[1]
  IC50: 62.2 nM
[2]
  IC50: 19100 nM

## COc1ncc(-n2nc3c(c2C(C)C)C(c2ccc(Cl)cc2C)N(c2cc(Cl)cn(C)c2=O)C(=O)N3)c(OC)n1 (stereo not drawn) [Example 32, 5-(5-Chloro-1-methyl-2-oxo-1,2-dihydropyridin-3-yl)-4-(4-chloro-2-methylphenyl)-2-(2,4-dimethoxypyrimidin-5-yl)-3-isopropyl-4,5-dihydro-2H-pyrazolo[3,4-d]pyrimidin-6(7H)-one]
[3]
  IC50: 0.21 nM

## COc1ncc(-n2nc3c(c2C(C)C)C(c2ccc(Cl)cc2C)N(c2cc(Cl)c(=O)n(C)c2)C(=O)N3)c(OC)n1 (stereo not drawn) [Example 31, 5-(5-Chloro-1-methyl-6-oxo-1,6-dihydropyridin-3-yl)-4-(4-chloro-2-methylphenyl)-2-(2,4-dimethoxypyrimidin-5-yl)-3-isopropyl-4,5-dihydro-2H-pyrazolo[3,4-d]pyrimidin-6(7H)-one]
[3]
  IC50: 0.29 nM

## COc1ccccc1-n1nc2c(c1C(C)C)C(c1ccc(Cl)cc1C)N(c1cc(Cl)ccc1OCCN(C)C)C(=O)N2 (stereo not drawn) [Example 12, 5-[5-Chloro-2-(2-dimethylamino-ethoxy)-phenyl]-4-(4-chloro-2-methyl-phenyl)-3-isopropyl-2-(2-methoxy-phenyl)-2,4,5,7-tetrahydro-pyrazolo[3,4-d]pyrimidin-6-one]
[1]
  IC50: 2.5 nM
[2]
  IC50: 2360 nM

## COCCn1cc(N2C(=O)Nc3nn(-c4ccccc4OC)c(C(C)C)c3C2c2ccc(Cl)cc2)cc(Cl)c1=O (stereo not drawn) [Example 16, 5-[5-Chloro-1-(2-methoxy-ethyl)-6-oxo-1,6-dihydro-pyridin-3-yl]-4-(4-chloro-phenyl)-3-isopropyl-2-(2-methoxy-phenyl)-2,4,5,7-tetrahydro-pyrazolo[3,4-d]pyrimidin-6-one]
[1]
  IC50: 5.6 nM
[2]
  IC50: 8570 nM

## Cc1cc(Cl)ccc1C1c2c(nn(Cc3ccccc3)c2C(C)C)NC(=O)N1c1cccc(Cl)c1F (stereo not drawn) [Example 1, 2-Benzyl-5-(3-chloro-2-fluoro-phenyl)-4-(4-chloro-2-methyl-phenyl)-3-isopropyl-2,4,5,7-tetrahydro-pyrazolo[3,4-d]pyrimidin-6-one]
[1]
  IC50: 1.8 nM
[2]
  IC50: 34700 nM

## COc1ccc(CNC=O)cc1-n1nc2c(c1C(C)C)C(c1ccc(Cl)cc1C)N(c1cc(Cl)ccc1C)C(=O)N2 (stereo not drawn) [Example 27, N-(3-(4-(4-Chloro-2-methylphenyl)-5-(5-chloro-2-methylphenyl)-3-isopropyl-6-oxo-4,5,6,7-tetrahydro-2H-pyrazolo[3,4-d]pyrimidin-2-yl)-4-methoxybenzyl)formamide]
[3]
  IC50: 0.11 nM

## COc1ccc(C#N)cc1-n1nc2c(c1C(C)C)C(c1ccc(Cl)cc1C)N(c1cc(Cl)ccc1C)C(=O)N2 (stereo not drawn) [Example 23, 3-(4-(4-Chloro-2-methylphenyl)-5-(5-chloro-2-methylphenyl)-3-isopropyl-6-oxo-4,5,6,7-tetrahydro-2H-pyrazolo[3,4-d]pyrimidin-2-yl)-4-methoxybenzonitrile]
[3]
  IC50: 0.15 nM

## COc1ccccc1-n1nc2c(c1C(C)C)C(c1ccc(Cl)cc1)N(c1ccc(=O)n(C)c1)C(=O)N2 (stereo not drawn) [Example 20, 4-(4-Chloro-phenyl)-3-isopropyl-2-(2-methoxy-phenyl)-5-(1-methyl-6-oxo-1,6-dihydro-pyridin-3-yl)-2,4,5,7-tetrahydro-pyrazolo[3,4-d]pyrimidin-6-one]
[1]
  IC50: 4.8 nM
[2]
  IC50: 4730 nM

## COc1ccc(C#N)cc1-n1nc2c(c1C(C)C)C(c1ccc(Cl)cc1C)N(c1cc(Cl)c(=O)n(C)c1)C(=O)N2 (stereo not drawn) [Example 24, 3-(5-(5-Chloro-1-methyl-6-oxo-1,6-dihydropyridin-3-yl)-4-(4-chloro-2-methylphenyl)-3-isopropyl-6-oxo-4,5,6,7-tetrahydro-2H-pyrazolo[3,4-d]pyrimidin-2-yl)-4-methoxybenzonitrile]
[3]
  IC50: 0.14 nM

## Cc1cc(Cl)ccc1[C@@H]1c2c(nn(Cc3ccccc3)c2C(C)C)NC(=O)N1c1cccc(Cl)c1F [Example 3, (R)-2-Benzyl-5-(3-chloro-2-fluorophenyl)-4-(4-chloro-2-methylphenyl)-3-isopropyl-4,5-dihydro-2H-pyrazolo[3,4-d]pyrimidin-6(7H)-one]
[1]
  IC50: 146 nM
[2]
  IC50: 39700 nM

## COc1ccccc1-n1nc2c(c1C(C)C)C(c1ccc(Cl)cc1)N(c1cc(Cl)ccc1OCCN(C)C)C(=O)N2 (stereo not drawn) [Example 17, 5-(5-Chloro-2-(3-(dimethylamino)ethoxy)phenyl)-4-(4-chlorophenyl)-3-isopropyl-2-(2-methoxyphenyl)-4,5-dihydro-2H-pyrazolo[3,4-d]pyrimidin-6(7H)-one]
[1]
  IC50: 6.6 nM
[2]
  IC50: 11600 nM

## COc1ccc(CN)cc1-n1nc2c(c1C(C)C)C(c1ccc(Cl)cc1C)N(c1cc(Cl)c(=O)n(C)c1)C(=O)N2 (stereo not drawn) [Example 29, 2-(5-(Aminomethyl)-2-methoxyphenyl)-5-(5-chloro-1-methyl-6-oxo-1,6-dihydropyridin-3-yl)-4-(4-chloro-2-methylphenyl)-3-isopropyl-4,5-dihydro-2H-pyrazolo[3,4-d]pyrimidin-6(7H)-one]
[3]
  IC50: 0.18 nM

## COc1ccc(CNC(C)=O)cc1-n1nc2c(c1C(C)C)C(c1ccc(Cl)cc1C)N(c1cc(Cl)c(=O)n(C)c1)C(=O)N2 (stereo not drawn) [Example 30, N-(3-(5-(5-Chloro-1-methyl-6-oxo-1,6-dihydropyridin-3-yl)-4-(4-chloro-2-methylphenyl)-3-isopropyl-6-oxo-4,5,6,7-tetrahydro-2H-pyrazolo[3,4-d]pyrimidin-2-yl)-4-methoxybenzyl)acetamide]
[3]
  IC50: 0.21 nM
